Results: paper PMC9502539, “1,2,3-Triazole-Benzofused Molecular Conjugates as Potential Antiviral Agents against SARS-CoV-2 Virus Variants” (Life, 2022)
Like-named read-outs stand apart in the source and are kept apart here.

Molecular target: Omicron spike protein (Severe acute respiratory syndrome coronavirus 2, UniProt P0DTC2, E484A/G339D/G446S/G496S/K417N/N440K/N501Y/Q493R/Q498R/S371L/S373P/S375F/S477N/T478K/Y505H)
Type: binding, SARS-CoV-2 Omicron variant (B.1.1.529 BA.1)

Which “remaining activity % of omicron spike proteins” value (from here on “remaining activity %”) (0.1 µM) does the source give for `Cc1ccc2nc(NC(=O)Cn3cc(CN4C(=O)C(=O)c5ccccc54)nn3)sc2c1` [compound 12] here?
Its value is 94%.

And the “remaining activity %” value (0.2 µM)?
Its value is 90%.

What about the “remaining activity %” value (0.5 µM) of the same compound?
Its value is 82%.

And the “remaining activity %” value (0.75 µM)?
The value was 74%.

What about the “remaining activity %” value (1 µM) of the same compound?
Its value is 59%.

With `O=C(Cn1cc(CSc2nc3ccccc3n2Cc2cn(CC(=O)NNC(=S)Nc3ccc(F)cc3)nn2)nn1)NNC(=S)Nc1ccc(F)cc1` [compound 5] as the compound, how does the “remaining activity %” value (0.1 µM) read?
The value was 82%.

What about the “remaining activity %” value (0.2 µM) of the same compound?
The value was 38.7%.

What about the “remaining activity %” value (0.5 µM) of the same compound?
Its value is 30%.

What about the “remaining activity %” value (0.75 µM) of the same compound?
The value was 20%.

What about the “remaining activity %” value (1 µM) of the same compound?
Its value is 16%.

How did the “remaining activity %” value (0.1 µM) turn out when `S=c1[nH]nc(Cn2cc(CSc3nc4ccccc4n3Cc3cn(Cc4n[nH]c(=S)n4-c4ccccc4)nn3)nn2)n1-c1ccccc1` [compound 6] was run?
The value was 79%.

And the “remaining activity %” value (0.2 µM)?
The value was 45.6%.

And the “remaining activity %” value (0.5 µM)?
Its value is 29%.

And the “remaining activity %” value (0.75 µM)?
Its value is 16%.

And the “remaining activity %” value (1 µM)?
The value was 10%.

For `Cc1onc(NS(=O)(=O)c2ccc(-n3cc(CSc4nc5ccccc5n4Cc4cn(-c5ccc(S(=O)(=O)Nc6noc(C)c6C)cc5)nn4)nn3)cc2)c1C` [compound 9], which “remaining activity %” value (0.1 µM) is on record?
Its value is 65.8%.

What about the “remaining activity %” value (0.2 µM) of the same compound?
Its value is 30.4%.

What about the “remaining activity %” value (0.5 µM) of the same compound?
The value was 10.3%.

And the “remaining activity %” value (0.75 µM)?
Its value is 5.1%.

What about the “remaining activity %” value (1 µM) of the same compound?
The value was 2%.

Which results are given for `CC(C)(O/N=C(\C(=O)N[C@@H]1C(=O)N2C(C(=O)[O-])=C(C[n+]3ccccc3)CS[C@H]12)c1csc(N)n1)C(=O)O` [Ceftazidime, ceftazidime, reference compound]?
remaining activity % of omicron spike proteins (0.1 µM): 89%; remaining activity % of omicron spike proteins (0.2 µM): 68%; remaining activity % of omicron spike proteins (0.5 µM): 54%; remaining activity % of omicron spike proteins (0.75 µM): 44%; remaining activity % of omicron spike proteins (1 µM): 34%

Which “remaining activity %” value (0.1 µM) does the source give for `Nn1c(Cn2cc(CSc3nc4ccccc4n3Cc3cn(Cc4n[nH]c(=S)n4N)nn3)nn2)n[nH]c1=S` [compound 7] here?
Its value is 85%.

What about the “remaining activity %” value (0.2 µM) of the same compound?
Its value is 43%.

What about the “remaining activity %” value (0.5 µM) of the same compound?
The value was 40%.

What about the “remaining activity %” value (0.75 µM) of the same compound?
Its value is 35%.

What about the “remaining activity %” value (1 µM) of the same compound?
Its value is 30%.

`O=C(Cn1cc(CSc2nc3ccccc3n2Cc2cn(CC(=O)NNC(=S)Nc3ccccc3)nn2)nn1)NNC(=S)Nc1ccccc1` [compound 4] was tested. Which “remaining activity %” value (0.1 µM) did it give?
Its value is 73.1%.

What about the “remaining activity %” value (0.2 µM) of the same compound?
The value was 40%.

What about the “remaining activity %” value (0.5 µM) of the same compound?
The value was 20%.

What about the “remaining activity %” value (0.75 µM) of the same compound?
Its value is 10%.

And the “remaining activity %” value (1 µM)?
Its value is 8%.
